The subject of test [1] is ALOX12 protein level in THP-1 cells. In words: ALOX12 protein level in TPA-treated THP-1 cells (immunoblot). It counts as cell-based, human. The method, then:
Phorbol ester (12-O-Tetradecanoylphorbol 13-acetate: TPA) is an activator of protein kinase C (PKC) that has been frequently used for inducing the differentiation of different cell types, including myeloid cells. Activation of human monocytic cells affects ALOX expression. Therefore, we induced differentiation of monocytic THP-1 cells to macrophage-like cells (MLCs) with 100 nM TPA [91, 92] and monitored the ALOX12 protein level as well as nucleo-cytoplasmic translocation of ALOX12-AS1-201. […] We concurrently monitored expression of the integrin subunit a M (ITGAM), also known as CD11b, which regulates myeloid cell polarization and is expressed in macrophages to facilitate adhesion, migration, chemotaxis, and accumulation during inflammation. […] CD68 is a transmembrane glycoprotein that is mainly located in the endosomal/lysosomal compartment but can rapidly shuttle to the cell surface in myeloid cells. […] Based on these observations, we performed nuclear and cytoplasmic fractionation at 72 hours of TPA treatment.
Relative quantification of proteins was performed as described previously. […] The immunoblots were imaged using a ChemiDoc XRS+ system (Bio-Rad) and band intensities were quantified using ImageJ (version 1.48) Software. […]
Background: Immunoblotting shows a protein as a band on a membrane.

In another test the test system is ALOX12-AS1-201 lncRNA. Briefly: Nucleo-cytoplasmic translocation of ALOX12-AS1-201 in THP-1 cells (FISH, fractionation, quantitative RT-PCR). It counts as cell-based, human.
Another test concerns ALOX12-AS1-202. In words: Multiplex RT-PCR of ALOX12-AS1-202 in TPA-treated THP-1 derived MLCs. It counts as cell-based, human. The settings on record: TPA treated (72 hours) MLCs vs vehicle treated THP-1 cells. Here is the method:
(§1) Phorbol ester (12-O-Tetradecanoylphorbol 13-acetate: TPA) is an activator of protein kinase C (PKC) that has been frequently used for inducing the differentiation of different cell types, including myeloid cells. Activation of human monocytic cells affects ALOX expression. Therefore, we induced differentiation of monocytic THP-1 cells to macrophage-like cells (MLCs) with 100 nM TPA [91, 92] and monitored the ALOX12 protein level as well as nucleo-cytoplasmic translocation of ALOX12-AS1-201. […] We concurrently monitored expression of the integrin subunit a M (ITGAM), also known as CD11b, which regulates myeloid cell polarization and is expressed in macrophages to facilitate adhesion, migration, chemotaxis, and accumulation during inflammation. […]
(§2) Total RNA from different cell lines was extracted with Trizol reagent (Catalog number: 15596026; ThermoFisher Scientific, Canada) as per the manufacturer's recommended protocol. […] Absolute quantification of ALOX12-AS1 lncRNA isoforms was performed in a Mastercycler®ep realplex real-time PCR system (Eppendorf, Hamburg, Germany) using SYBR green dye (Catalog number: S7563; ThermoFisher Scientific). […] Real-time PCR data quality control calculations were determined by the SAS program as described previously and the calculated PCR efficiency was between 95%-99%. […] Results were expressed as copy number of specific isoforms per 100 ng of total RNA.

Test [2] concerns ALOX12 mRNA. Briefly: Multiplex RT-PCR of ALOX12 mRNA in TPA-treated THP-1 derived MLCs. The test is classed as cell-based, human. The note with it: TPA treated (72 hours) MLCs vs vehicle treated THP-1 cells. The method, then:
as §1, §2

A further test concerns ALOX12. Briefly: ALOX12 catalytic activity in cell lysates (12S-HETE ELISA). It counts as biochemical, human. The settings on record: lysate of TPA-induced MLC, 50 μM arachidonic acid, 15 min, 37° C.; vehicle THP-1 lysate ~6 ng. The source says:
We measured ALOX12 enzyme activity of THP-1 and TPA-induced MLC cell lysates and compared them to establish the biological relevance of lncRNA-mediated downregulation of ALOX12 protein level. We used a cell-free system to avoid any limitations of intracellular arachidonic acid uptake by an in vitro cell-based system. As well, we used a platelet-derived protein-lysate as a positive control for ALOX12 enzyme activity. ALOX12 was originally discovered and characterized as an arachidonic acid peroxidizing enzyme in platelets.
ALOX12 catalytic activity was measured in a cell-free system using cell lysates derived from unactivated human platelets (positive control) and Phorbol ester (12-O-Tetradecanoylphorbol 13-acetate: TPA)/vehicle (DMSO/ethanol)-treated THP-1. ALOX12 converts arachidonate to the bioactive lipid 12(S)-hydroperoxyeicosatetraenoate (12S-HpETE). […] The cell lysates prepared in 1×PBS supplemented with 0.5% NP40, 1× Halt protease and phosphatase inhibitor cocktail 1 were incubated with 50 μM arachidonic acid (catalogue number: A0781, Tokyo Chemical Industry, USA) for 15 min at 37° C. and the amount of 12S-HETE was quantitatively measured using a commercially available Enzyme-Linked ImmunoAssay (ELISA) kit (catalogue number: ADI-900-050, Enzo Life Sciences Inc., USA) as per the manufacturer's instructions. […]

Test [3] deals with ALOX12 mRNA. The note with it: A431 cells, time-dependent; cited from earlier work.

Some results are limits rather than exact numbers.

Method for ALOX12-AS1-201 lncRNA: Therefore, we induced differentiation of monocytic THP-1 cells to macrophage-like cells (MLCs) with 100 nM TPA [91, 92] and monitored the ALOX12 protein level as well as nucleo-cytoplasmic translocation of ALOX12-AS1-201. […] Based on these observations, we performed nuclear and cytoplasmic fractionation at 72 hours of TPA treatment.
Total RNA from different cell lines was extracted with Trizol reagent (Catalog number: 15596026; ThermoFisher Scientific, Canada) as per the manufacturer's recommended protocol. Total RNA (1-5 μg) was treated with RNase-free DNase I (Catalog number: M0303, New England Biolabs Inc., USA) at 37° C. for 15 min, subsequently heat-inactivated at 75° C. for 10 min and used for cDNA synthesis. […] Absolute quantification of ALOX12-AS1 lncRNA isoforms was performed in a Mastercycler®ep realplex real-time PCR system (Eppendorf, Hamburg, Germany) using SYBR green dye (Catalog number: S7563; ThermoFisher Scientific). […] Real-time PCR data quality control calculations were determined by the SAS program as described previously [101] and the calculated PCR efficiency was between 95%-99%. Quantitative RT-PCR was conducted for different cell-line derived RNAs, and the specificity of each amplified product was confirmed by melting curve analysis. Results were expressed as copy number of specific isoforms per 100 ng of total RNA.

As to `CCCCCCCCCCCCCC(=O)O[C@@H]1[C@@H](C)[C@@]2(O)[C@@H](C=C(CO)C[C@]3(O)C(=O)C(C)=C[C@@H]23)[C@@H]2C(C)(C)[C@]12OC(C)=O` [TPA, 12-O-Tetradecanoylphorbol 13-acetate], the ALOX12 protein levels entry in test [1] (THP-1 cells, 100 nM TPA, treatment period 1-72 h, immunoblot) is given as “dramatically reduced”; in test [1] (TPA-differentiated MLCs, 100 nM, 72 hours, vs vehicle (DMSO) treated THP-1 cells), “concomitant decrease”. The “time to translocation of ALOX12-AS1-201 lncRNA to the cytosol” value in the test on ALOX12-AS1-201 lncRNA (THP-1 cells, 100 nM TPA, FISH) was not above 1 h. Also, the ALOX12-AS1-201 cytosolic abundance result with ALOX12-AS1-201 lncRNA (TPA-differentiated MLCs, 72 hours, vs vehicle (DMSO) treated THP-1 cells, quantitative RT-PCR) was “significant increase”. The ALOX12-AS1-202 level entry in the test with ALOX12-AS1-202 is reported as “dramatic reduction”. For the same molecule, in the test with ALOX12 mRNA [2], the “ALOX12 mRNA level” value is given as “relatively unaltered”. The 12S-HETE production in the test on ALOX12 is approximately 1.3 ng. Moreover, the “expression of ALOX12 mRNA” value with ALOX12 mRNA [3] was “increased”.
